{"source": "ChEMBL document CHEMBL4118097", "about": "“Selective Inhibitors of Dual Leucine Zipper Kinase (DLK, MAP3K12) with Activity in a Model of Alzheimer's Disease” (J Med Chem, 2017)", "key": {"[1]": {"biological_target": "Casein kinase I isoform gamma-2 (Homo sapiens) (UniProt P78368)", "sequence (P78368 whole entry, looked up, canonical isoform)": "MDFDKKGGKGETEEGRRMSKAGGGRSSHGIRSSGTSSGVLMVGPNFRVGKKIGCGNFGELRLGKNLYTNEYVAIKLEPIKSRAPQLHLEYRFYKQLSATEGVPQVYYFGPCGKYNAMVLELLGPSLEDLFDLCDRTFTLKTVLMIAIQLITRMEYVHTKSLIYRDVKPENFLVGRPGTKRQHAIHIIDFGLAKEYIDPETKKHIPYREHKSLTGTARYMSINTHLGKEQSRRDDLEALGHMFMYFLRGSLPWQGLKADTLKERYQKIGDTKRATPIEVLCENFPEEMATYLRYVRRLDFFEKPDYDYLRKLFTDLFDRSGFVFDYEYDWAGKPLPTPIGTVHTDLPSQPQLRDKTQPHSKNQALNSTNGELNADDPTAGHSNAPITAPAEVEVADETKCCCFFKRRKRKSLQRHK", "experiment": "Inhibition of CK1gamma2 (unknown origin) at 1 uM by FRET assay relative to control"}, "[2]": {"biological_target": "Phosphatidylinositol 4,5-bisphosphate 3-kinase catalytic subunit gamma isoform (Homo sapiens) (UniProt P48736)", "sequence (P48736 whole entry, looked up, canonical isoform)": "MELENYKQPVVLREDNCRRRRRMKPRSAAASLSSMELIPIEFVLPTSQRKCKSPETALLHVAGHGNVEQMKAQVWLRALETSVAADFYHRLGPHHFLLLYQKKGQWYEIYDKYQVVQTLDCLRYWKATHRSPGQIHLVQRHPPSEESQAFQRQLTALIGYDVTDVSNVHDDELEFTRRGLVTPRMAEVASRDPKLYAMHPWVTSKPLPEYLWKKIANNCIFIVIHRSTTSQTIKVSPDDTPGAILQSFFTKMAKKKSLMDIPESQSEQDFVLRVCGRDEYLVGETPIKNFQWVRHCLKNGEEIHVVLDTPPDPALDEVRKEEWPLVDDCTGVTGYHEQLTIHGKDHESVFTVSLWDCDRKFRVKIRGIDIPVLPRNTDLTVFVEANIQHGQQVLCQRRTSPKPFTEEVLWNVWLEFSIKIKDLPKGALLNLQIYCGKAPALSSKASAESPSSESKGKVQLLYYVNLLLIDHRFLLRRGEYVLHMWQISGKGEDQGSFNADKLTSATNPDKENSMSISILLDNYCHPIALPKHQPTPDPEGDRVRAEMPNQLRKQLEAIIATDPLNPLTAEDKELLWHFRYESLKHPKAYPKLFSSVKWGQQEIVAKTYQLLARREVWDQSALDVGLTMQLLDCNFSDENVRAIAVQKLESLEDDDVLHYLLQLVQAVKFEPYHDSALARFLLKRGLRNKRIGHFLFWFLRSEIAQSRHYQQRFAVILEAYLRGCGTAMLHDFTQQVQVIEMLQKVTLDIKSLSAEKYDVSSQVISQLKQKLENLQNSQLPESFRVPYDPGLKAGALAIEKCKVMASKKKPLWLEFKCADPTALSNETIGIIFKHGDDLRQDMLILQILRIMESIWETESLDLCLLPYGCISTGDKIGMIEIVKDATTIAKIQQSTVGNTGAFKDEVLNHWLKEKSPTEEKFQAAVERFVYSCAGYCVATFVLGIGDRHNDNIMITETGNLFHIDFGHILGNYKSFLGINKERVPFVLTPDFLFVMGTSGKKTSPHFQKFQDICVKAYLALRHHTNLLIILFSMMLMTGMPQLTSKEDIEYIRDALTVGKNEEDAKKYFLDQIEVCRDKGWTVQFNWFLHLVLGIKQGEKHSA", "experiment": "Inhibition of recombinant full length His-tagged human PI3KG at 1 uM by FRET assay relative to control"}, "[3]": {"biological_target": "Serine/threonine-protein kinase PAK 1 (Homo sapiens) (UniProt Q13153)", "sequence (Q13153 whole entry)": "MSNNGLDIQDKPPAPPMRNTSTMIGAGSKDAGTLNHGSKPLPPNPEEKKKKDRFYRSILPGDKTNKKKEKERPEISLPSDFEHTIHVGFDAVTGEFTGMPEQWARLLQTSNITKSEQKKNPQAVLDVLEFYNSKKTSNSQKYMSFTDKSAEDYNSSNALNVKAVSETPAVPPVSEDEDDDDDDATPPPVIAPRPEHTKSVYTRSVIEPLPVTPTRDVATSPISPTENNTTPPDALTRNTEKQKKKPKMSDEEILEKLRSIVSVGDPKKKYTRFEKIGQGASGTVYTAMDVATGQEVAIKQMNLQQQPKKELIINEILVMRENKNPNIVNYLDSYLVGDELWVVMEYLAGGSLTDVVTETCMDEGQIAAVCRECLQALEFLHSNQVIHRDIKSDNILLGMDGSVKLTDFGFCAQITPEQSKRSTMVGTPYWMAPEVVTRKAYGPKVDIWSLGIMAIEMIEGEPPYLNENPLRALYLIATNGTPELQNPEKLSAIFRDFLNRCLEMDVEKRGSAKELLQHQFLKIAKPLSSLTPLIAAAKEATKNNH", "experiment": "Inhibition of recombinant full length GST-tagged human PAK1 expressed in baculovirus expression system at 1 uM by FRET assay relative to control"}, "Mus musculus": {"test_system": "Mus musculus", "experiment": "Down regulation of phosphorylated JNK level in cortical lysate of PS2APP mouse model at 15 to 50 mg/kg, po administered as single dose after 6 hrs by Western blot analysis", "type": "functional, organism-based"}, "[4]": {"biological_target": "Serine/threonine-protein kinase Nek9 (Homo sapiens) (UniProt Q8TD19)", "sequence (Q8TD19 whole entry, the tested form may be a part)": "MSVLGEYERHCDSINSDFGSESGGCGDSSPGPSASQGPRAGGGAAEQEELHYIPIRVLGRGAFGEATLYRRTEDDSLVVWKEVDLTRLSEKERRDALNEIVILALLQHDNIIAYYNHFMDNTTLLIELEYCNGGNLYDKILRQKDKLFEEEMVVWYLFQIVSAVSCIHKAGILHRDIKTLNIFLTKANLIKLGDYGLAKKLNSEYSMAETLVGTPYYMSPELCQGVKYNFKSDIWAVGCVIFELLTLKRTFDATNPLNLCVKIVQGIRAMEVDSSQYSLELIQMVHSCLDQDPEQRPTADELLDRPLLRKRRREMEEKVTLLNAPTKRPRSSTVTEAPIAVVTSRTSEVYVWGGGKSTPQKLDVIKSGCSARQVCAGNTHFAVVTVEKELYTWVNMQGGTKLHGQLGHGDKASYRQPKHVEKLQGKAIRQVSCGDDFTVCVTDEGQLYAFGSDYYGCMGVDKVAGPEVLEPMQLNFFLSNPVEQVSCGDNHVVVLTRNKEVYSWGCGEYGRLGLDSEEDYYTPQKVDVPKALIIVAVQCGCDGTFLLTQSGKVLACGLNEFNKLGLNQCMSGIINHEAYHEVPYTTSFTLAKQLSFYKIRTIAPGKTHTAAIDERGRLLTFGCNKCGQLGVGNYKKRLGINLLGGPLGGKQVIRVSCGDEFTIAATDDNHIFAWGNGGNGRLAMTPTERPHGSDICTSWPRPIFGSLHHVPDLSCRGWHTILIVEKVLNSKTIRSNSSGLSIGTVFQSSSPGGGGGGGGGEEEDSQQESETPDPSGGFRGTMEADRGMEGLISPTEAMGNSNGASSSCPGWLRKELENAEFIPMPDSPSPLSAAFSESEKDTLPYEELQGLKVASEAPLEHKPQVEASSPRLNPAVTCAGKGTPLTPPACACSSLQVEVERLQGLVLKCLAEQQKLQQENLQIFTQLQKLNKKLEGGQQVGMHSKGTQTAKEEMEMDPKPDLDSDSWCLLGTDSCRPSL", "experiment": "Inhibition of recombinant full length GST-tagged human NEK9 catalytic domain expressed in baculovirus expression system at 1 uM by FRET assay relative to control"}, "[5]": {"biological_target": "Serine/threonine-protein kinase 16 (Homo sapiens, UniProt O75716)", "sequence (O75716 whole entry)": "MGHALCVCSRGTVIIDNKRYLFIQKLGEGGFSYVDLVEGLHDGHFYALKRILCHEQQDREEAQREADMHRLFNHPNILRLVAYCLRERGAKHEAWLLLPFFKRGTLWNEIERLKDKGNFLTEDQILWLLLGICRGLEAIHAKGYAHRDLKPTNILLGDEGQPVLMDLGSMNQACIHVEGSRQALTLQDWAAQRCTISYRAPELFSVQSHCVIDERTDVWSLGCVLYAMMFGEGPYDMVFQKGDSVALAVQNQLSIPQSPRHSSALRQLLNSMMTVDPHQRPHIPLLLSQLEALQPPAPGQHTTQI", "experiment": "Inhibition of recombinant full length His-tagged human STK16 expressed in baculovirus expression system by FRET assay"}}, "note": "Activity calls are given as the source filed them. The calls are words filed in the database; no cut-off is given here."}
{"smiles": "Nc1ncc(-c2cc([C@H]3[C@@H]4CN(C5COC5)C[C@@H]43)n(CC3CC3)n2)cc1C(F)(F)F", "values": [{"measurement": "inhibition", "setting": "[1]", "value": 7.1, "unit": "%"}, {"measurement": "inhibition", "setting": "[2]", "value": 12.4, "unit": "%"}, {"measurement": "inhibition", "setting": "[3]", "value": 0.7, "unit": "%"}]}
{"smiles": "CC(C)n1nc(-c2cnc(N)c(OC(F)(F)F)c2)cc1[C@H]1[C@@H]2CN(C3COC3)C[C@@H]21", "values": [{"measurement": "Activity", "setting": "Mus musculus", "value": "Active"}, {"measurement": "inhibition", "setting": "[4]", "value": -3.4, "unit": "%"}, {"measurement": "IC50", "setting": "[5]", "value": 1.52, "unit": "µM"}]}
